Earlier results in article PMC7285658 (Chemical communications (Cambridge, England), 2020).

Molecular target: RSK1/2
Conditions: selective inhibitor of RSK1/2

Ki: ~1000 nM
SMILES: CC(=O)O[C@@H]1[C@@H](OC(C)=O)[C@@H](O)[C@H](Oc2c(-c3ccc(O)cc3)oc3cc(O)cc(O)c3c2=O)O[C@H]1C [SL0101]
